# Results from paper PMC10525585, “Evaluation of the Antibacterial Effect of Aurone-Derived Triazoles on Staphylococcus aureus” (Antibiotics, 2023).
# Key:
# pre-formed MSSA biofilms = test: Biofilm assay (BacLight live/dead confocal imaging); assay type: cell-based, Staphylococcus aureus; details: for Fold Change in Dead Cells / Fold Change in Total Cells / Percent Change in Dead Cells / Percent Change in Total Cells: versus mock-treated control; for Dead Cell Count / Living Cell Count / Total Cell Count: 48 h biofilm treated 24 h with 100 µM AT; for Dead Cell Count: control 96; for Living Cell Count: control 2124; for Total Cell Count: control 2220
# Method: To prepare AT-treated cultures, overnight bacterial cultures were used (adjusted to 1 × 10^8 CFU/mL) in BHI medium to grow biofilm in 35 mm MatTEK dishes with a 20 mm glass bottom well by adding 1500 µL of overnight bacteria per dish. The dishes were incubated at 37 °C in a humidified incubator for 48 h. The old media was refreshed by adding 1500 µL of BHI for the control, or the AT mixture (15 µL of AT stock with 1485 µL BHI to achieve 100 µM AT concentration), or DMSO mixture (15 µL DMSO with 1485 µL BHI) for negative control. The dishes were then incubated in a humidified incubator for an additional 24 h at 37 °C. The media was removed, and cells were washed twice with 500 µL PBS, followed by the addition of 50 µL BacLight^TM with 250 µL PBS for 15 min. Biofilms were imaged using a Zeiss AxioObserver microscope with an LSM700 confocal module (Carl Zeiss Microscopy, White Plains, NY, USA). To assess biofilm disruption, Fiji software version 2.14.0 was used. Initially, raw microscope images were imported, separating the color channels, as dead cells were stained fluorescent red and living cells were stained green. To allow particle counts, the color saturation threshold was set using the RenyiEntropy option to clear the images from potential noise. This step was followed by watershed separation, which separates potentially overlapping cells, and then particle analysis was completed using the 0.5–1.5 micron size as a guide. Biofilm disruption was quantified both by reductions in total bacterial cell numbers and increases in dead cell numbers.
# Hemolysis assay = assay type: cell-based, human; details: human, human red blood cells (0.5% final suspension, single donor), 1 h, 37 °C, read-out: Hemolysis by AT Compounds (%)
# Method: (§1) A single donor-specific blood sample was acquired from Innovative Research Inc. (Novi, MI, USA) for the assay (donor#:1WB3ALS40ML-36517). A volume of 1–2 mL of the human red blood cells (hRBCs in Alsevier’s solution) was mixed with 8–10 mL of Phosphate-Buffered Saline (PBS) in a 15 mL centrifuge tube to pellet by centrifugation at 1400× g in a swinging bucket centrifuge for 10 min. The supernatant was then removed, and the cells were washed with 10 mL of PBS two additional times. The cells were resuspended in PBS to achieve a final 1% solution of hRBCs.
# (§2) The wells of a 96-well U-bottom plate that contained AT compounds were prefilled with 50 µL of PBS. A 2-fold dilution of AT compounds was prepared. For each triplicate, an initial AT dilution was prepared using 6 µL of AT stock solution in 144 µL of PBS. This initial mixture was diluted 2-fold on a 96-well plate following the method described above for a final volume of 50 µL of diluted AT in each well. As a final step, 50 µL of the 1% hRBC solution was added to each well, except the blank wells. PBS and hRBCs were used for negative control, whereas hRBCs with 1% and 0.1% Triton-X100 were used as positive controls. After 1 h of incubation at 37 °C in a humidified incubator, the plate was centrifuged at 1000 rpm for 10 min in a Thermo Sorvall Legend XTR centrifuge with a TX-750 swinging bucket rotor (Thermo Fisher Scientific, Waltham, MA, USA) to pellet intact cells. After centrifugation, 50 µL of supernatant was transferred from each well into a new 96-well U-bottom plate and hemolysis of the hRBCs detected in a plate-reader for absorbance at 405 nm. Hemolytic activity for all concentrations of the ATs was computed following this formula:(1) % hemolysis=OD405nmsample− OD405nmnegative control/OD405nmpositivecontrol[…]
# human red blood cells = test: Hemolysis assay; assay type: cell-based; details: overall statement
# Method: as §1, §2
# MSSA = test: Growth curve assay (Bioscreen C, 48 h); assay type: cell-based, Staphylococcus aureus; details: 48 h growth curve; for strength of growth inhibition: concentrations closer to the IC50 values (5–25 µM)
# Method: (§3) This suspension was diluted 1:20 in TSB.
# (§4) For the growth curve assay, honeycomb plates (Growth Curves USA, Piscataway, NJ, USA) were used with TSB as the growth medium. Using bacterial cultures as described above, growth curve measurements were carried out in quintuplicates. For positive growth controls, wells with 10 µL of bacteria mixed into 90 µL of TSB were used. For quintuplicate treatment wells, 4-fold dilutions of AT compounds were used such that AT concentrations of 100, 25, 6.25, and 1.56 µM were tested. A 10 µL inoculum of bacteria prepared as described above was added to each dilution of the ATs. The growth in each well was measured in 15 min intervals for 48 h at 37 °C in the Bioscreen C instrument. The results were processed and analyzed with Microsoft Excel (version 2201) and GraphPad Prism 9.3.1 software (GraphPad by Dotmatics, Boston, MA, USA).
# MRSA = test: Growth curve assay (Bioscreen C, 48 h); assay type: cell-based, Staphylococcus aureus; details: 48 h growth curve; for strength of growth inhibition: concentrations closer to the IC50 values (5–25 µM)
# Method: as §3, §4
Structure (SMILES),"Fold Change in Dead Cells (pre-formed MSSA biofilms; 100 µM AT, 24 h)","Fold Change in Total Cells (pre-formed MSSA biofilms; 100 µM AT, 24 h)","Percent Change in Dead Cells (pre-formed MSSA biofilms; 100 µM AT, 24 h) [%]","Percent Change in Total Cells (pre-formed MSSA biofilms; 100 µM AT, 24 h) [%]",Dead Cell Count (pre-formed MSSA biofilms),Living Cell Count (pre-formed MSSA biofilms),Total Cell Count (pre-formed MSSA biofilms),"hemolysis at 1 h, 3.125 µM (Hemolysis assay) [%]","hemolysis at 1 h, 6.25 µM (Hemolysis assay) [%]","hemolysis at 1 h, 12.5 µM (Hemolysis assay) [%]","hemolysis at 1 h, 25 µM (Hemolysis assay) [%]","hemolysis at 1 h, 50 µM (Hemolysis assay) [%]","hemolysis at 1 h, 100 µM (Hemolysis assay) [%]",hemolytic activity for human erythrocytes (human red blood cells),strength of growth inhibition (MSSA),strength of growth inhibition (MRSA),"disruption of MSSA biofilms (pre-formed MSSA biofilms; pre-formed biofilm, 100 µM AT, 24 h)",blocking of bacterial growth (MSSA; concentrations below 10 µM),"relative inhibition of MRSA growth (MRSA; 0–100 µM, among the four ATs)",blocking of bacterial growth (MRSA; concentrations below 10 µM)
O=C(c1ccccc1O)c1n[nH]nc1-c1ccc(Cl)cc1 [AT106],-0.75,-0.8914,-75.00,-89.14,24,217,241,0.6,-0.1,1.2,1.2,-0.3,1.1,not hemolytic,weaker inhibitors,weaker inhibitors,,,,
O=C(c1ccccc1O)c1n[nH]nc1-c1cccc(C(F)(F)F)c1 [AT116],2.417,-0.4212,241.67,-42.12,328,957,1285,0.8,-0.7,2.3,2.1,2.6,3.5,not hemolytic,weaker inhibitors,weaker inhibitors,successfully disrupted MSSA biofilms,,,
O=C(c1ccccc1O)c1n[nH]nc1-c1ccc(Br)s1 [AT137],-0.8021,-0.9347,-80.21,-93.47,19,126,145,-2.6,-0.5,-0.8,2.7,1.4,1.8,not hemolytic,strong inhibitors,strong inhibitors,,successful in blocking bacterial growth,greatest inhibition,successful in blocking bacterial growth
